In patent publication US11033607B2, “Peptides and methods for preventing ischemic tissue injury” (University Health Network, priority 2012, dated 2021):
Where “and” joins values, the source holds several entries; their conditions need not be identical. Identical values can stand only once.

Experiments:
[1] = system: WT mice subjected to LAD ligation; test: Myocardial infarction by LAD coronary artery ligation after 14-day peptide infusion, infarct size by TTC; type: in vivo, mouse; settings: 4 days post-MI, mean±SE
Description: After 2 weeks of continuous peptide infusion, animals were re-anesthesized with i.p ketamine/xylazine and underwent permanent ligation of the proximal left anterior descending (LAD) coronary artery to generate an experimental myocardial infarction (MI), as previously described (Ohta et al. 2004), with the surgeon blinded to treatment groups. At day 4 post-MI, animals were sacrificed and hearts excised for measurement of infarct size (FIG. 1B). This timepoint allows accurate measurement of infarct area prior to onset of cardiac rupture events (Noyan-Ashraf et al. 2005)
Freshly excised hearts were washed twice in cold PBS to remove excess blood, and cut into 2 mm sections perpendicular to the long axis. The sections were incubated at 37° C. in 2% 2,3,5-triphenyltetrazolium chloride (TTC) for 15 min, after which they were washed with PBS and fixed in 4% paraformaldehyde for 1 h before image acquisition using a digital scanner. Image J software (NIH, USA) was used to measure infarct area (TTC unstained white area) and total left ventricle (LV) area. Measurements were performed by two independent investigators blinded to treatment groups, and percent infarct size was calculated as the average of both measurements (infarct area/total LV area×100%).

isolated WT mice hearts = test: Ex vivo I/R injury, LVDP in presence of soluble AC inhibitor KH7 or transmembrane AC inhibitor Ddox
Protocol: Male, 10-12 week old, C57BI/6 mice were anesthesized with i.p ketamine (100 mg/kg)/xylazine (10 mg/kg)/heparin (1000 IU/kg), and the heart excised quickly, cannulated through the aorta, and perfused retrogradely with Kreb's Heinslet buffer in a Langendorff apparatus as previously described (Ban et al. 2008). […] A small plastic balloon connected to a pressure transducer was inflated inside the LV to measure LV end systolic (LVESP) and end diastolic pressure (LVEDP) obtained from computer analysis (AcqKnowledge 3.7.1. Biopack System, Goleta, Calif.). LVEDP was maintained at 4-8 mm Hg throughout the experiment. After 20 min of equilibration to allow the balloon to adjust inside the LV, hearts were perfused with buffer for 20 min, followed by 20 min perfusion with peptide of interest (FIG. 1a). Global ischemia was then generated by clamping inflow to the heart for 30 min, after which reperfusion was reinstated for 40 min. In the untreated control group, hearts were perfused for a total of 40 min prior to ischemia. LV developed pressure (LVDP) was calculated by subtracting LVEDP from LVESP. Functional recovery of LV function was calculated as LVDP at the end of reperfusion as a percentage of LVDP prior to ischemia.

[2] = system: isolated perfused hearts of WT mice; test: LDH release in coronary effluents of isolated perfused hearts undergoing I/R injury; set-up: species or system mouse; settings: pretreatment 6 nmol/L, vs untreated control
Protocol: To further ascertain the protective actions of GLP-1(28-36)^amide, LDH release was measured in coronary effluents from the isolated perfused hearts as an indicator of cellular necrosis and death. […] Pretreatment with the GLP-1(28-36)^amide peptide therefore helps prevent cell death following an ischemic event and is useful for the treatment or prevention of ischemic tissue injury and ischemic heart disease.

[3] = system: primary human coronary artery smooth muscle cells (hCSMCs); test: cAMP assay (enzymatic immunoassay) in hCSMCs; type: cell-based
Protocol: After 24 h serum-deprivation, cells were pre-treated with the phosphodiesterase inhibitor IBMX (250 uM) for 30 min, after which the peptide of interest and/or vehicle PBS was added to the media to a final concentration of 30 nM for GLP-1 peptides and Exendin-4, and 10 uM for Isoproterenol and Forskolin. After 10 min drug treatment, cells were lysed and total intracellular cAMP release was measured using an enzymatic immunoassay kit (Cayman Chemicals, Mich.) as per manufacturer's protocol.

[4] = system: primary ventricular cardiomyoctyes isolated from neonatal WT mice; test: cAMP assay in neonatal mouse ventricular myocytes; type: cell-based; settings: 30 nM, 10 min, IBMX 250 uM pretreatment, vs PBS or scrambled peptide
Protocol: (§1) Neonatal mouse ventricular myocytes (FIG. 9A) and atrial HL-1 myocyte cell lines (FIG. 9B) were pretreated with 250 uM IBMX for 30 min followed by treatment with GLP-1(28-36) and SCRAM(28-36) (30 nM each) or IPE and Forsk (10 uM each) or bicarbonate (25 mM) for 10 min. Cells were then lysed for measurement of cytoplasmic cAMP levels. Data represent mean±SE (n=3; triplicate wells for each replicate). After 24 h serum-deprivation, cells were pre-treated with the phosphodiesterase inhibitor IBMX (250 uM) for 30 min, after which the peptide of interest and/or vehicle PBS was added to the media to a final concentration of 30 nM for GLP-1 peptides and Exendin-4, and 10 uM for Isoproterenol and Forskolin. After 10 min drug treatment, cells were lysed and total intracellular cAMP release was measured using an enzymatic immunoassay kit (Cayman Chemicals, Mich.) as per manufacturer's protocol.

HL-1 cells = test: cAMP assay in HL-1 atrial myocyte cell line; type: cell-based, mouse; settings: HL-1 atrial cardiomyocyte cell line, 30 nM, 10 min, IBMX 250 uM pretreatment
Protocol: as §1

[5] = system: Akt, Erk1/2, CREB and eNOS; test: Western blots of heart lysates from pre-treated mice; type: in vivo, mouse; settings: organs collected on day 18, pre-treated hearts
Description: Organs were collected on day 18 as shown in the experimental model set out in FIG. 1B and Western blots of heart lysates were processed.

[6] = system: mouse model of ischemic stroke; test: Mouse model of ischemic stroke after 28 days cerebral ventricle infusion
Protocol: Peptides corresponding to the C-terminal domain of GLP-1 as described herein including GLP-1(28-36)^amide are tested in a mouse model of ischemic stroke. GLP-1(28-36)^amide is infused via Alzet® osmotic mini pumps brain infusion kits, specialized for targeted infusion into cerebral ventricles. After 28 days of GLP-1(28-36)^amide infusion, stroke is generated, after which brain infarct sizes are determined by TTC staining.
Protein lysates from brain tissue are extracted and the expression of survival kinases is probed by Western blots.

[7] = 14-day pre-infusion 3.5 pmol/kg/min
[8] = with sAC inhibitor KH7 (2.4 uM)
[9] = with tmAC inhibitor Ddox (2,5 dideoxyadenosine, 12 uM)
[10] = 14-day pre-infusion 18.5 pmol/kg/min

| Substance | % LV infarct size [1, 7] | LVDP at the end of reperfusion (isolated WT mice hearts; [8]) [mmHg] | LVDP at the end of reperfusion (isolated WT mice hearts; [9]) [mmHg] | % LV infarct size [1, 10] | LDH release in coronary effluent [2] | intracellular cAMP, dose dependence [3] | cAMP release in presence of tmAC inhibitor Ddox ([3]; Ddox 25 uM) | cAMP release in presence of sAC inhibitor KH7 ([3]; KH7 25 uM) | increase in cAMP release ([3]; without AC inhibitor) [fold] | cAMP response [4] | intracellular cAMP release (HL-1 cells) | activation of Akt, Erk1/2, CREB and eNOS (Western blot of heart lysates) [5] | brain infarct size (TTC staining) ([6]; 28 days infusion into cerebral ventricles before stroke) | expression of survival kinases in brain tissue (Western blot) ([6]; mouse, in vivo) |
| --- | --- | --- | --- | --- | --- | --- | --- | --- | --- | --- | --- | --- | --- | --- |
| H-EGTFTSDVSSYLEGQAAKEFIAWLVKGR-NH2 [GLP-1(9-36)^amide] | 26.1±1.4% |  |  |  |  |  |  |  |  |  |  |  |  |  |
| H-HAEGTFTSDVSSYLEGQAAKEFIAWLVKGR-NH2 [GLP-1(7-36)^amide] | 23.0±1.9% and 23.0% | 73.1±5.3 | 27.1±5.3 |  |  |  |  |  |  |  |  |  |  |  |
| H-AGKFWRILV-NH2 [SCRAM(28-36)^amide] |  | 36.4±5.2 | 37.6±5.3 | 32.4±1.8% |  |  |  |  |  |  |  |  |  |  |
| H-FIAWLVKGR-NH2 [GLP-1(28-36)^amide] |  | 25.2±1.7 | 67.6±5.8 | 24.9±2.6% and 24.9±2.4% | significantly lower concentration of LDH | dose-dependent increases in intracellular cAMP | did not prevent the increase in cAMP | abolished | 2 | no cAMP response was detected | no intracellular cAMP release | enhanced activation of Akt, Erk1/2, CREB and eNOS | smaller infarct sizes | upregulation of survival kinases |
